This note sets out measurements from patent US10519111B2, “UV absorbing compounds, compositions comprising same and uses thereof” (CORAL SUNSCREEN PTY LTD, priority 2013, dated 2019).

Data set [1] is described as follows: Critical wavelength (λcrit), approximate in-house measurement. Type of data set: physicochemical. The text has this: As the precise test for critical wavelength was unable to be replicated exactly by the inventors due to the need for specialist equipment and a specific calibration of the spectrophotometer, these values are only approximate to a degree. […] This represents a highly useful result and so, compounds based around this benzoyl substitution pattern shown, are especially preferred.

Data set [2] can be described thus: UV absorption properties (λmax, molar extinction coefficient ε, efficiency E 1%, 1 cm). The class given is physicochemical.
[3] abbreviates: Table 1, covalently coupled compounds.
Setting [4] is: Table 10, bis and mono enamine compounds.
[5] abbreviates: Table 13B, miscellaneous compounds.
Setting [6] is: Table 13B, values in order of the λmax values.
Setting [7] is: Table 13B, values in order of the λmax values, in M-1 cm-1.
Setting [8] is: values in order of the λmax values.
The mark [9] stands for this setting: Table 1, values in order of the λmax values.
Where [10] appears, read: Table 2, values in order of the λmax values.
[11] abbreviates: Table 6A, N-isobutyl-C3-benzoyl compounds.
Setting [12] is: Table 7, values in order of the λmax values.
Setting [13] is: Table 13A, miscellaneous compounds.

`CC(C)CN1C=C(C(=O)CC/C=C/c2ccc(COc3ccc(C(=O)CC(=O)c4ccc(C(C)(C)C)cc4)cc3)cc2)C(C)(C)CC1` registered a λcrit in data set [1] (setting [3]) of 375 nm.
For the molecule `Cc1ccc(N2C=CC(C)(C)CC2)cc1`, in data set [2] (Table 10), the “E (1%, 1 cm)” value was found to be 1036. This molecule also gave a λmax in data set [2] (setting [4]) of 278 nm. This molecule showed a ε in data set [2] (Table 10, in M-1 cm-1) of 20823. Besides, the λcrit in data set [1] (Table 10) came out at 321 nm.
Turning to `Cc1ccc(N2C=CC(C)(C)C=C2)cc1`, the “E (1%, 1 cm)” value in data set [2] (Table 10) came out at 1601. Further, the λmax in data set [2] (setting [4]) came out at 283 nm. This molecule also displayed a ε in data set [2] (Table 10, in M-1 cm-1) of 31871. The same molecule displayed a λcrit in data set [1] (Table 10) of 317 nm.
On the same counts, the results for `CC1(C)C=CN(c2ccncc2)C=C1` are 977, 305 nm, 18164 and 327 nm.
The molecule `CCCN(CCC)c1ccc(C(=O)C2=CN(C(C)(C)C)CCC2(C)C)cc1` had a λcrit in data set [1] (Table 13B) of 365 nm.
Consider `CC1(C)CCN(C(C)(C)C)C=C1C(=O)c1ccc(Nc2ccccc2)cc1`, for which, in data set [2] (setting [5]), the λmax was 315 nm. In addition, the “E (1%, 1 cm)” value in data set [2] (setting [6]) was found to be 737. The molecule further returned a ε in data set [2] (setting [7]) of 26695. The molecule also displayed a λcrit in data set [1] (Table 13B) of 361 nm.
`Cc1ccc(N2C=C(C(=O)N(CCCCN(C(=O)C3=CN(c4ccc(C)cc4)CCC3(C)C)c3ccccc3)c3ccccc3)C(C)(C)CC2)cc1` registered a λmax in data set [2] (setting [5]) of 325 nm. The “E (1%, 1 cm)” value in data set [2] (setting [6]) is 608. In data set [2] (setting [7]), this molecule registered a ε of 42215. This molecule also returned a λcrit in data set [1] (Table 13B) of 346 nm.
In turn, `CC1(C)CCN(C(C)(C)C)C=C1C(=O)/C=C/c1ccc(/C=C/C(=O)C2=CN(C(C)(C)C)CCC2(C)C)cc1` came in with a λmax in data set [2] (setting [5]) of 386 nm. In addition, the “E (1%, 1 cm)” value in data set [2] (setting [6]) is listed as 705. For the same molecule, the ε in data set [2] (setting [7]) was 36404. Further, the λcrit in data set [1] (Table 13B) was determined as 390 nm.
For `CC1(C)CCN(c2ccc(C(C)(C)C)cc2)C=C1C(=O)N(Cc1ccc(CN(C(=O)C2=CN(c3ccc(C(C)(C)C)cc3)CCC2(C)C)c2ccccc2)cc1)c1ccccc1`, in that order: 326 nm, 567, 46937 and 352 nm.
In data set [1] (Table 13B), `CC1(C)CCN(c2ccccc2)C=C1C(=O)/C=C/c1ccc(/C=C/C(=O)C2=CN(c3ccccc3)CCC2(C)C)cc1` had a λcrit of 390 nm.
The same measure, in the same setting: as for `CC1(C)CCN(C(C)(C)C)C=C1C(=O)/C=C/c1c2ccccc2c(/C=C/C(=O)C2=CN(C(C)(C)C)CCC2(C)C)c2ccccc12`, the figure is 389 nm; as for `CC1(C)CCN(C(C)(C)C)C=C1C(=O)c1ccc(N2CCCN(c3ccc(C(=O)C4=CN(C(C)(C)C)CCC4(C)C)cc3)CC2)cc1`, 365 nm.
For `CC1(C)CCN(c2cccc3ccccc23)C=C1C(=O)C(F)(F)F` [Compound 198, 1-(4,4-dimethyl-1-(naphthalen-1-yl)-1,4,5,6-tetrahydropyridine-3-yl)-2,2,2-trifluoroethanone], the “UV λmax” value in data set [2] is 325 nm.
Turning to `Cc1ccc(N2C=CC(C)(C)C(C(=O)C(F)(F)F)=C2)cc1` [Compound 199, 1-(4,4-dimethyl-1-(p-tolyl)-1,4-dihydropyridin-3-yl)-2,2,2-trifluoroethanone], in data set [2], the “UV λmax” value is 388 nm. Also, the “ε (molar extinction coefficient)” value in data set [2] (setting [8]) amounted to 14911 M⁻¹ cm⁻¹.
For the molecule `Cc1nn(C)c(N2C=CC(C)(C)C=C2)c1C(=O)C(F)(F)F` [Compound 200, 1-(5-(4,4-dimethylpyridin-1(4H)-yl)-1,3-dimethyl-1 H-pyrazol-4-yl)-2,2,2-trifluoroethanone], in data set [2], the “UV λmax” value is listed as 253 nm. In data set [2] (setting [8]), the “ε (molar extinction coefficient)” value is 10016 M⁻¹ cm⁻¹.
For the molecule `CC1(C)CCN(c2ccc(C(C)(C)C)cc2)C=C1C(=O)C(c1ccccc1)c1ccccc1` [Compound 204, 1-(1-(4-(tert-butyl)phenyl)-4,4-dimethyl-1,4,5,6-tetrahydropyridine-3-yl)-2,2-diphenylethanone], the “UV λmax” value in data set [2] was found to be 337 nm. The ε value entry in data set [2] (unit not given) was “approximately 18000”. In addition, in data set [2] (setting [8]), the “ε (molar extinction coefficient)” value was 17793 M⁻¹ cm⁻¹.
For the molecule `CC1(C)CCN(c2ccc(C(C)(C)C)cc2)C=C1C(=O)C1c2ccccc2-c2ccccc21` [Compound 205, (1-(4-(tert-butyl)phenyl)-4,4-dimethyl-1,4,5,6-tetrahydropyridin-3-yl)(9H-fluoren-9-yl)methanone], the “UV λmax” value in data set [2] came out at 339 nm. Besides, the “ε (molar extinction coefficient)” value in data set [2] (setting [8]) stood at 30745 M⁻¹ cm⁻¹.
In turn, `COc1ccc(C(=O)C(CCCCCC(=O)C2=CN(CC(C)C)CCC2(C)C)C(=O)c2ccc(C(C)(C)C)cc2)cc1` (stereo not shown) [drawing 45] came in with a λmax in data set [2] (setting [3]) of 306 nm.
Molecule `C=CCCC(=O)C1=CN(CC(C)C)CCC1(C)C` [drawing 46] yielded a λmax in data set [2] (setting [3]) of 308 nm. Also, in data set [2] (setting [9]), the “Ε (1%, 1 cm)” value is listed as 1417 and the ε turned out to be 35000 M⁻¹ cm⁻¹.
For the molecule `CC(C)CN1C=C(C(=O)c2ccc(C(C)(C)C)cc2)C(C)(C)CC1` [drawing 51], in data set [2] (Table 2, compounds 11-13), the λmax is 317 nm. In data set [2] (setting [10]), the “Ε (1%, 1 cm)” value is reported as 581 and the ε worked out at 19000 M⁻¹ cm⁻¹.
`COc1ccc(C(=O)C2=CN(CC(C)C)CCC2(C)C)cc1` [drawing 52] came in with a λmax in data set [2] (Table 2, compounds 11-13) of 319 nm.
`COc1ccc(C(=O)CC(=O)C2=CN(CC(C)C)CCC2(C)C)cc1` [drawing 53] registered a λcrit in data set [1] (Table 2, compounds 11-13) of 389 nm.
`CC1(C)CCN(C(C)(C)C)C=C1C(=O)CC(=O)c1ccccc1` [drawing 76] returned a λcrit in data set [1] (Table 5) of 385 nm.
`CC(C)CN1C=C(C(=O)c2ccc(Br)cc2)C(C)(C)CC1` [drawing 84]: in data set [2] (Table 6A), the “E (1%, 1 cm)” value worked out at 642 and the ε stood at 22500 M⁻¹ cm⁻¹. In addition, the λmax in data set [2] (setting [11]) is given as 318 nm.
On the same counts, the results for `CC(C)CN1C=C(C(=O)c2ccc3c(c2)CCO3)C(C)(C)CC1` [drawing 85] are 831, 22000 M⁻¹ cm⁻¹ and 320 nm.
Take `CC(C)CN1C=C(C(=O)c2ccc(-c3ccccc3)cc2)C(C)(C)CC1` [drawing 86]: in data set [2] (Table 6A), the “E (1%, 1 cm)” value stood at 509 and the ε was 18000 M⁻¹ cm⁻¹. This molecule also yielded a λmax in data set [2] (setting [11]) of 320 nm.
Consider `CC(C)CN1C=C(C(=O)c2ccccc2)C(C)(C)CC1` [drawing 87], for which, in data set [2] (Table 6A), the “E (1%, 1 cm)” value is given as 701 and the ε is 19000 M⁻¹ cm⁻¹. For the same molecule, in data set [2] (setting [11]), the λmax turned out to be 316 nm.
For `CC(C)CN1C=C(C(=O)c2ccc(C(=O)C3=CN(CC(C)C)CCC3(C)C)cc2)C(C)(C)CC1` [drawing 88], in that order: 547, 20000 M⁻¹ cm⁻¹ and 320 nm.
On to `CC(C)CN1C=C(C(=O)c2cc(C(=O)C3=CN(CC(C)C)CCC3(C)C)cc(C(=O)C3=CN(CC(C)C)CCC3(C)C)c2)C(C)(C)CC1` [drawing 89], for which, in data set [2] (Table 6A), the “E (1%, 1 cm)” value amounted to 502 and the ε is 33000 M⁻¹ cm⁻¹. The same molecule showed a λmax in data set [2] (setting [11]) of 316 nm.
Take `CC(C)CN1C=C(C(=O)c2ccc(C(=O)c3ccccc3)cc2)C(C)(C)CC1` [drawing 90]: in data set [2] (Table 6A), the “E (1%, 1 cm)” value was 200 and the ε was 7500 M⁻¹ cm⁻¹. Further, the λmax in data set [2] (setting [11]) is 295 nm.
For the molecule `COc1ccc(C(=O)C2=CN(CC(C)C)CCC2(C)C)c(OC)c1` [drawing 91], in data set [2] (Table 6A), the “E (1%, 1 cm)” value is 286 and the ε was 9500 M⁻¹ cm⁻¹. The molecule further displayed a λmax in data set [2] (setting [11]) of 313 nm.
In turn, `CC(C)=CC(=O)C1=CN(CC(C)C)CCC1(C)C` [drawing 107] showed a λmax in data set [2] (Table 7, unsaturated compounds) of 314 nm. For the same molecule, in data set [2] (setting [12]), the “E (1%, 1 cm)” value was 757 and the ε is 19000 M⁻¹ cm⁻¹.
For `C=C(C)CC(=O)C1=CN(CC(C)C)CCC1(C)C` [drawing 108], in that order: 306 nm, 574 and 14500 M⁻¹ cm⁻¹.
Regarding `C=C/C=C/CC(=O)C1=CN(CC(C)C)CCC1(C)C` [drawing 109], the λmax in data set [2] (Table 7, unsaturated compounds) is listed as 311 nm. In data set [2] (setting [12]), the “E (1%, 1 cm)” value is listed as 1053 and the ε is 27500 M⁻¹ cm⁻¹.
Take `C=CCC(=O)C1=CN(CC(C)C)CCC1(C)C` [drawing 110]: in data set [2] (Table 7, unsaturated compounds), the λmax is given as 310 nm. Further, in data set [2] (setting [12]), the “E (1%, 1 cm)” value is reported as 1102 and the ε was determined as 27000 M⁻¹ cm⁻¹.
With `CC(C)CN1C=C(C(=O)/C=C/C=Cc2ccccc2)C(C)(C)CC1` [drawing 115], the λcrit in data set [1] (Table 7) is 387 nm.
Take `C=C(C)C(=O)C1=CN(CC(C)C)CCC1(C)C` [drawing 116]: the λmax in data set [2] (Table 7, unsaturated compounds) turned out to be 310 nm. In addition, in data set [2] (setting [12]), the “E (1%, 1 cm)” value is reported as 806 and the ε is 18950 M⁻¹ cm⁻¹.
In turn, `CC(C)CN1C=C(C(=O)C(C#N)=C(c2ccccc2)c2ccccc2)C(C)(C)CC1` [drawing 118] yielded a λcrit in data set [1] (Table 7) of 357 nm.
On to `CC1(C)C=CN(c2ccccc2)CC1` [drawing 121], for which, in data set [2] (Table 8a), the “E (1%, 1 cm)” value stood at 1205 and the ε came to 22550 M⁻¹ cm⁻¹. In data set [2] (Table 8a, N-phenyl compounds), this molecule displayed a λmax of 278 nm.
For `CC1(C)C=CN(c2ccccc2)C=C1` [drawing 125], in that order: 866, 16000 M⁻¹ cm⁻¹ and 285 nm.
As to `COc1ccc(N2C=CC(C)(C)CC2)cc1` [drawing 126], in data set [2] (Table 8a, N-phenyl compounds), the λmax amounted to 275 nm.
`CCC(=O)C1=CN(CC(C)C)C(=O)CC1(C)C` [drawing 169] gave a λmax in data set [2] (setting [13]) of 291 nm.
As for `CC(C)CN1C=C(C(=O)CCC(=O)O)C(C)(C)CC1` [drawing 171], the λmax in data set [2] (setting [13]) is 308 nm.
`CC(C)CN1C=C(C(=O)C(c2ccccc2)c2ccccc2)C(C)(C)CC1` [drawing 172]: in data set [2] (Table 13A), the “E (1%, 1 cm)” value is 716 and the ε is 26000 M⁻¹ cm⁻¹. Moreover, in data set [2] (setting [13]), the λmax is recorded as 314 nm.
For `CC(C)CN1C=C(S(=O)(=O)c2ccccc2)C(C)(C)CC1` [drawing 173], in data set [2] (Table 13A), the “E (1%, 1 cm)” value was 359 and the ε is 11000 M⁻¹ cm⁻¹. In data set [2] (setting [13]), the λmax is 285 nm.
